Results published in patent US4714764A, “2-(4-pyridylaminomethyl)-benzimidazole derivatives having antiviral activity” (Maruishi Seiyaku Kabushiki Kaisha, priority 1985, dated 1987).
Counter-ions that a name gives are not always drawn.

Tests used:
enterovirus type 70 = experiment: Inhibition of virus cytopathogenic effect (CPE) in LLC-MK2 cells; format: cell-based; conditions: for CI (chemotherapeutic index): CI=CD50 /ID50; for IC50: Enterovirus D, enterovirus type 70, 100-300 TCID50, LLC-MK2 cells, 33° C., examined at 48, 72, 96 and 120 h, read-out: IC50 (lowest concentration that reduced virus CPE by 50% or more)
[1] = Morphological cytotoxicity in LLC-MK2 cells; format: cell-based; conditions: monkey, 33° C., examined at 48, 72, 96 and 120 h, read-out: CD50 (lowest concentration that caused morphological cytotoxicity by 50% or more)

IC50 (enterovirus type 70)	Compound	CI (chemotherapeutic index) (enterovirus type 70)	CC50 [1]
> 100 µg/mL	O=[N+]([O-])c1ccc2[nH]c(CNc3ccncc3)nc2c1 [Compound VI, 2-(4-pyridylaminomethyl)-5(6)-nitrobenzimidazole dihydrochloride]		> 100 µg/mL
1.4 µg/mL	Cl.Cl.Clc1cc2nc(CNc3ccncc3)[nH]c2cc1Cl [Compound VII, 2-(4-pyridylaminomethyl)-5,6-dichlorobenzimidazole dihydrochloride]	126	177 µg/mL
> 100 µg/mL	Nc1ccc2[nH]c(CNc3ccncc3)nc2c1 [Compound VIII, 2-(4-pyridylaminomethyl)-5(6)-aminobenzimidazole trihydrochloride]		> 100 µg/mL
0.98 µg/mL	CCc1ccc2[nH]c(CNc3ccncc3)nc2c1 [Compound X, 2-(4-pyridylaminomethyl)-5(6)-ethylbenzimidazole dihydrochloride]	362	354 µg/mL
> 100 µg/mL	Cc1cccc2[nH]c(CNc3ccncc3)nc12 [Compound XI, 2-(4-pyridylaminomethyl)-4(7)-methylbenzimidazole dihydrochloride]		> 100 µg/mL
3 µg/mL	Cc1cc2nc(CNc3ccncc3)[nH]c2cc1C.Cl.Cl [Compound XII, 2-(4-pyridylaminomethyl)-5,6-dimethylbenzimidazole dihydrochloride]	239	707 µg/mL

The next lines start with the molecule.

Compound	IC50 (enterovirus type 70)	CI (chemotherapeutic index) (enterovirus type 70)	CC50 [1]
Cl.Cl.c1ccc2[nH]c(CNc3ccncc3)nc2c1 [Compound I, 2-(4-pyridylaminomethyl) benzimidazole dihydrochloride]	3.7 µg/mL	152	562 µg/mL
Clc1ccc2[nH]c(CNc3ccncc3)nc2c1 [Compound II, 2-(4-pyridylaminomethyl)-5(6)-chlorobenzimidazole dihydrochloride]	1.8 µg/mL	99	178 µg/mL
O=C(c1ccccc1)c1ccc2[nH]c(CNc3ccncc3)nc2c1 [Compound III, 2-(4-pyridylaminomethyl)-5(6)-benzoylbenzimidazole dihydrochloride]	> 100 µg/mL		> 100 µg/mL
COc1ccc2[nH]c(CNc3ccncc3)nc2c1 [Compound IV, 2-(4-pyridylaminomethyl)-5(6)-methoxybenzimidazole dihydrochloride]	27.6 µg/mL	64	1770 µg/mL
FC(F)(F)c1ccc2[nH]c(CNc3ccncc3)nc2c1 [Compound IX, 2-(4-pyridylaminomethyl)-5(6)-trifluoromethylbenzimidazole dihydrochloride]	5.5 µg/mL	64	354 µg/mL
Cc1ccc2[nH]c(CNc3ccncc3)nc2c1 [Compound V, 2-(4-pyridylaminomethyl)-5(6)-methylbenzimidazole dihydrochloride]	1.8 µg/mL	311	562 µg/mL
